Here are results for 13 compounds from US9115169B2, “Method of treating tumors” (Lytix Biopharma AS, priority 2000, dated 2015).

Molecules are shown by their SMILES. ≈ marks a conversion by molar mass, not a printed value. Like-named read-outs stand apart in the source and are kept apart here. Where a SMILES comes first, the peptide text is derived from it. [ ]: non-standard residue; d: D form. The star is where a group is joined. βNA = c1ccc2cc(N*)ccc2c1; OBn = c1ccc(CO*)cc1

Assay [1] deals with Escherichia coli ATCC 25922.
Assay [2] has as its system Staphylococcus aureus ATCC 25923.
Assay [3] shares this test system. This is another data set of the same source.
For assay [4], the system named is Escherichia coli ATCC 25922. This is another data set of the same source.
The subject of a further assay is MRSE ATCC 27626. Conditions: for MIC MRSE: ATCC 27626.
Another assay deals with MRSA ATCC 33591. Conditions: for MIC MRSA: ATCC 33591.
The mark [5] stands for this setting: Table 1, peptide amides, value outside brackets.

Method for MRSA ATCC 33591: (§1) All strains were stored at −70° C. […] All assays were performed in duplicate.
Method for MRSE ATCC 27626: as §1

For `N=C(N)NCCC[C@H](NC(=O)[C@H](Cc1c[nH]c2ccccc12)NC(=O)[C@H](CCCNC(=N)N)NC(=O)[C@H](Cc1c[nH]c2ccccc12)NC(=O)[C@@H](N)CCCNC(=N)N)C(=O)N[C@@H](Cc1c[nH]c2ccccc12)C(N)=O` [RWRWRW] (H-RWRWRW-NH2), in assay [1] (ATCC 25922), the “MBC E. coli” value was 20 µg/mL (≈ 19.2 µM). In addition, in assay [2] (ATCC 25923), the “MBC S. aureus” value was found to be 10 µg/mL (≈ 9.58 µM).

Take `N=C(N)NCCC[C@H](NC(=O)[C@H](Cc1c[nH]c2ccccc12)NC(=O)[C@H](CCCNC(=N)N)NC(=O)[C@H](Cc1c[nH]c2ccccc12)NC(=O)[C@@H](N)CCCNC(=N)N)C(N)=O` [RWRWR] (H-RWRWR-NH2): in assay [1] (ATCC 25922), the “MBC E. coli” value is 100 µg/mL (≈ 117 µM). Moreover, the “MIC S. aureus” value in assay [3] (ATCC 25923) worked out at 20 µg/mL (≈ 23.3 µM). For the same compound, the “MBC S. aureus” value in assay [2] (ATCC 25923) came to 20 µg/mL (≈ 23.3 µM).

In the case of `N=C(N)NCCC[C@H](NC(=O)[C@H](Cc1c[nH]c2ccccc12)NC(=O)[C@@H](N)CCCNC(=N)N)C(N)=O` [RWR] (H-Arg-Trp-Arg-NH2; N-terminus assumed), the “MIC E. coli” value in assay [4] (ATCC 25922) is >100 µg/mL. Besides, the “MBC E. coli” value in assay [1] (ATCC 25922) is >100 µg/mL. Besides, the “MIC S. aureus” value in assay [3] (ATCC 25923) was >100 µg/mL. For the same compound, the “MBC S. aureus” value in assay [2] (ATCC 25923) was >100 µg/mL.

Regarding `N=C(N)NCCC[C@H](NC(=O)[C@H](Cc1c[nH]c2ccccc12)NC(=O)[C@H](Cc1c[nH]c2ccccc12)NC(=O)[C@@H](N)CCCNC(=N)N)C(N)=O` [RWWR] (H-RWWR-NH2; N-terminus assumed), the “MIC E. coli” value in assay [4] (ATCC 25922) is >100 µg/mL. Further, the “MBC E. coli” value in assay [1] (ATCC 25922) was >100 µg/mL. The “MIC S. aureus” value in assay [3] (ATCC 25923) was found to be 10 µg/mL (≈ 14.2 µM). Further, the “MBC S. aureus” value in assay [2] (ATCC 25923) was >100 µg/mL.

As for `N=C(N)NCCC[C@H](NC(=O)[C@H](CCCNC(=N)N)NC(=O)[C@H](Cc1c[nH]c2ccccc12)NC(=O)[C@H](Cc1c[nH]c2ccccc12)NC(=O)[C@H](Cc1c[nH]c2ccccc12)NC(=O)[C@@H](N)CCCNC(=N)N)C(N)=O` [RWWWRR] (H-RWWWRR-NH2), the “MIC E. coli” value in assay [4] (ATCC 25922) was determined as 10 µg/mL (≈ 9.58 µM). Moreover, in assay [1] (ATCC 25922), the “MBC E. coli” value worked out at 15 µg/mL (≈ 14.4 µM). Besides, the “MIC S. aureus” value in assay [3] (ATCC 25923) came to 7.5 µg/mL (≈ 7.18 µM). In addition, the “MBC S. aureus” value in assay [2] (ATCC 25923) was found to be 10 µg/mL (≈ 9.58 µM).

In the case of `N=C(N)NCCC[C@H](N)C(=O)N[C@@H](Cc1c[nH]c2ccccc12)C(=O)Nc1ccc2ccccc2c1` [RWβNA] (H-Arg-Trp-βNA), the “Minimum inhibitory concentration MRSE” value with MRSE ATCC 27626 (Table 9) was determined as 12.5 µg/mL (≈ 25.7 µM). Also, the “Minimum inhibitory concentration E. coli” value in assay [4] (Table 9) worked out at 100 µg/mL (≈ 206 µM). Further, the “Minimum inhibitory concentration MRSA” value in the assay on MRSA ATCC 33591 (Table 9) worked out at 12.5 µg/mL (≈ 25.7 µM). The “Minimum inhibitory concentration S. aureus” value in assay [3] (Table 9) stood at 12.5 µg/mL (≈ 25.7 µM).

As to `N=C(N)NCCC[C@H](N)C(=O)N[C@H](Cc1c[nH]c2ccccc12)C(=O)OCc1ccccc1` [Rw-OBzl] (H-Arg-[dW]-OBn; N-terminus assumed), the “MIC MRSE” value in the assay on MRSE ATCC 27626 worked out at 25 µg/mL (≈ 55.5 µM). In assay [4] (ATCC 25922), the “MIC E. coli” value is >300 µg/mL. In addition, the “MIC MRSA” value in the assay on MRSA ATCC 33591 turned out to be 37.5 µg/mL (≈ 83.2 µM). Moreover, the “MIC S. aureus” value in assay [3] (ATCC 25923) turned out to be 37.5 µg/mL (≈ 83.2 µM).

`N=C(N)NCCC[C@H](NC(=O)[C@H](CCCNC(=N)N)NC(=O)[C@@H](N)Cc1c[nH]c2ccccc12)C(=O)N[C@@H](Cc1c[nH]c2ccccc12)C(N)=O` [WRRW] (H-WRRW-NH2; N-terminus assumed): in assay [4] (ATCC 25922), the “MIC E. coli” value was >100 µg/mL. Besides, in assay [1] (ATCC 25922), the “MBC E. coli” value is >100 µg/mL. The “MIC S. aureus” value in assay [3] (ATCC 25923) was in the range of 75 to 100 µg/mL. For the same compound, in assay [2] (ATCC 25923), the “MBC S. aureus” value was >100 µg/mL.

Take `N=C(N)NCCC[C@H](NC(=O)[C@H](Cc1c[nH]c2ccccc12)NC(=O)[C@H](CCCNC(=N)N)NC(=O)[C@@H](N)Cc1c[nH]c2ccccc12)C(=O)N[C@@H](Cc1c[nH]c2ccccc12)C(N)=O` [WRWRW] (H-WRWRW-NH2): the “MBC E. coli” value in assay [1] (ATCC 25922) is 50 µg/mL (≈ 56.3 µM). Besides, the “MBC S. aureus” value in assay [2] (ATCC 25923) is on record as 20 (20) μg/ml.

For `N=C(N)NCCC[C@H](NC(=O)[C@H](Cc1c[nH]c2ccccc12)NC(=O)[C@H](CCCNC(=N)N)NC(=O)[C@@H](N)Cc1c[nH]c2ccccc12)C(N)=O` [WRWR] (H-WRWR-NH2; N-terminus assumed), in assay [4] (setting [5]), the “MIC E. coli” value is >100 µg/mL. Also, the “MBC E. coli” value in assay [1] (Table 1, peptide amides) is >100 µg/mL. For the same compound, in assay [3] (setting [5]), the “MIC S. aureus” value was 100 µg/mL (≈ 142 µM). Besides, the “MBC S. aureus” value in assay [2] (setting [5]) was >100 µg/mL.

Consider `N=C(N)NCCC[C@H](NC(=O)[C@@H](N)Cc1c[nH]c2ccccc12)C(=O)N[C@@H](Cc1c[nH]c2ccccc12)C(N)=O` [WRW] (H-Trp-Arg-Trp-NH2; N-terminus assumed), for which, in assay [4] (ATCC 25922), the “MIC E. coli” value was >100 µg/mL. Also, in assay [1] (ATCC 25922), the “MBC E. coli” value is >100 µg/mL. The “MIC S. aureus” value in assay [3] (ATCC 25923) came to 75 µg/mL (≈ 137 µM). Further, the “MBC S. aureus” value in assay [2] (ATCC 25923) was 100 µg/mL (≈ 183 µM).

Turning to `N=C(N)NCCC[C@H](NC(=O)[C@H](CCCNC(=N)N)NC(=O)[C@H](CCCNC(=N)N)NC(=O)[C@H](Cc1c[nH]c2ccccc12)NC(=O)[C@@H](N)Cc1c[nH]c2ccccc12)C(=O)N[C@@H](Cc1c[nH]c2ccccc12)C(N)=O` [WWRRRW] (H-WWRRRW-NH2), the “MIC E. coli” value in assay [4] (ATCC 25922) is 20 (20) μg/ml. Moreover, the “MBC E. coli” value in assay [1] (ATCC 25922) amounted to 20 µg/mL (≈ 19.2 µM).

In the case of `N=C(N)NCCC[C@@H](N)C(=O)N[C@@H](Cc1c[nH]c2ccccc12)C(=O)OCc1ccccc1` [rW-Obzl] (H-[dR]-Trp-OBn; N-terminus assumed), in the assay with MRSE ATCC 27626, the “MIC MRSE” value was found to be 25 µg/mL (≈ 55.5 µM). The “MIC E. coli” value in assay [4] (ATCC 25922) was >300 µg/mL. Besides, the “MIC MRSA” value in the assay on MRSA ATCC 33591 was 50 µg/mL (≈ 111 µM). Besides, the “MIC S. aureus” value in assay [3] (ATCC 25923) is 37.5 µg/mL (≈ 83.2 µM).
